Experimental data published in US20160031836A1, “BIOMARKER” (Novartis AG, priority 2013, published 2016).

What was measured:
MOLM13 = assay: Cell proliferation by CellTiter-Glo, human leukemia cells; assay type: cell-based; details: MOLM13, 72 h
Procedure: (§1) Eight human leukemia cells with or without MLL1 translocation were treated with AUY922 for 72 h and cell proliferation rate were measured by CellTiter-Glo. IC95 were used to estimate the cell response to HSP90 inhibition. Supplementary Table. S1: 35 Genes were Identified as Modulators of Cell Response to HSP90 Inhibition by siRNA Screening

NOMO = assay: as above; assay type: cell-based; details: 72 h
Procedure: as §1

RS(4,11) = assay: as above; assay type: cell-based; details: 72 h
Procedure: as §1

[1] = tested on: other leukemia cell lines; assay: as above; assay type: cell-based; details: 72 h
Procedure: as §1

MLL1+/+ MEFs [2] = assay: Microscopic analysis and dose response (CTG) in MEFs; assay type: cell-based, mouse
Procedure: (§2) A. Cell colony formation assay of MLL1 knockdown with AUY922 treatment in A375 cells. 5000 shNTC or shMLL1 A375 cells were seeded in six wells plate and were treated or untreated with Doxycycline for 5 days, then followed by compound treatment for 6 days. B. Cell colony formation assay of MLL1 knockdown with AUY922 treatment in A2058 cells. 5000 shNTC or shMLL1 A2058 cells were seeded in six wells plate and were treated or untreated with Doxycycline for 5 days, then followed by compound treatment for 6 days. C. Western blotting analysis of tumor samples. Tumor samples were collected at the end of studies and western blotting analysis of MLL1 and GAPDH were performed. D. Real-time PCR analysis of tumor samples. Tumor samples were collected at the end of studies and total mRNA was collected and Real-time PCR was performed. E. The combinational effect of MLL1 knockdown and HSP90 inhibitor in A375 xenograft mouse model. Tumor growth rate of A375 cells expressing inducible control shRNA or shRNA against MLL1 under Doxycycline and/or HSP990 were compared at different time points. […] The percentage of S+G2M cells were determined by PI staining. […] The apoptotic cells represented by 7AAD+AnnexinV+ were determined by FACS. […] Relative cell growth was measured by CTG. […] The apoptotic cells represented by 7AAD+AnnexinV+ were determined by FACS.

MLL1−/− MEFs [3] = assay: as above; assay type: cell-based, mouse; details: after 48 h treatment
Procedure: as §2

MLL1+/+ MEFs [4] = assay: Cell apoptosis analysis (7AAD+AnnexinV+, FACS) in MEFs; assay type: cell-based, mouse; details: AUY922 100 nM, 48 h
Procedure: as §2

MLL1−/− MEFs [5] = assay: as above; assay type: cell-based, mouse; details: AUY922 100 nM, 48 h
Procedure: as §2

human primary BALL cells = assay: Dose response in human primary BALL cells (CellTiter-Glo); assay type: cell-based; details: 48 h
Procedure: A. The percentage of human leukemia cells in bone marrow of recipient mice transplanted with human primary leukemia cells. The human cells represented by human CD45+ were determined by FACS. B. Real-time PCR analysis of MLL1 expression among different human primary leukemia cell. C. Dose response of AUY922 in human primary BALL cells. Human primary BALL cells were treated with DMSO or serial dilutions of AUY922 for 48 h. Relative cell growth was measured by CellTiter-Glo. D. JURKAT, SEM, RS(4,11) and MOLM13 were treated for 72 h with different doses of AUY922 and/or NVP-JAE067, inhibition of cell viability was measured using the CellTiter-Glo assay. E. Chalice software was used to calculate excess inhibition over Loewe additivity for each AUY922 and NVP-JAE067 dose combination.
To investigate whether MLL1 expression is different in primary human cancer cells, we examined the expression of MLL1 in human B acute lymphoblastic leukemia samples. The primary human BALL cells were transplanted into immune deficient mice and bone marrow cells were collected from recipient mice until blood tumor burden is higher than 70% by FACS analysis. […] We next evaluated the efficacy of AUY922 on those human leukemia cells. […] We next tested the combination effect of AUY922 and DOT1L inhibitor NVP-JAE067 on human leukemia cells. […] Taken together, those result indicated human leukemia cells with MLL1 low expression may be more sensitive to HSP90 inhibition and the combination of HSP90 inhibitor and DOT1L inhibitor may be a good strategy for human leukemia cells harboring MLL1 translocation.

A375, A2058 and HCT116 = assay: Cell colony formation assay with MLL1 knockdown; assay type: cell-based, human; details: Doxycycline 5 days, compound 6 days
Procedure: A. Cell colony formation assay of MLL1 knockdown with AUY922 treatment in A375 cells. 5000 shNTC or shMLL1 A375 cells were seeded in six wells plate and were treated or untreated with Doxycycline for 5 days, then followed by compound treatment for 6 days. B. Cell colony formation assay of MLL1 knockdown with AUY922 treatment in A2058 cells. 5000 shNTC or shMLL1 A2058 cells were seeded in six wells plate and were treated or untreated with Doxycycline for 5 days, then followed by compound treatment for 6 days. C. Western blotting analysis of tumor samples. Tumor samples were collected at the end of studies and western blotting analysis of MLL1 and GAPDH were performed. D. Real-time PCR analysis of tumor samples. Tumor samples were collected at the end of studies and total mRNA was collected and Real-time PCR was performed. E. The combinational effect of MLL1 knockdown and HSP90 inhibitor in A375 xenograft mouse model. Tumor growth rate of A375 cells expressing inducible control shRNA or shRNA against MLL1 under Doxycycline and/or HSP990 were compared at different time points. […] The percentage of S+G2M cells were determined by PI staining. […] The apoptotic cells represented by 7AAD+AnnexinV+ were determined by FACS. […] Relative cell growth was measured by CTG. […] The apoptotic cells represented by 7AAD+AnnexinV+ were determined by FACS. […]

[6] = tested on: binding of HSF1 to HSP70 or BAG3 promoter; assay: ChIP with HSF1 antibody, quantitative real-time PCR; assay type: cell-based, human; details: A375 cells, AUY922 100 nM, one hour
Procedure: shHSF1 transduced A375 cells were treated with or without Doxycycline for 3 days and were further treated with AUY922 100 nM for 1 h. Chromatin was immunoprecipitated with anti-MLL1 antibody and amplified by quantitative real-time PCR using primers around HSE element of HSP70 (A) or BAG3 (B) gene promoter and MLL1 binding site of MESI1 (C) promoter.
To examine the recruitment of MLL1 to the HSF1-modulated gene promoter, we performed chromatin immunoprecipitation (ChIP) with A375 cells transduced with control or shMLL1 and treated or untreated with AUY922 for 1 h. Chromatin from those cells was sonicated to obtain fragments below 500 bp and immunoprecipitated using polyclonal against HSF1 and MLL1. Quantitative real-time PCR analysis was carried out with primer specific for the HSP70 and BAG3 encompassing the HSE element. MLL1 binding site of MESI1 was used as a control. […] In contrast, the bindings were not detected in A375 cells with inducible HSF1 knockdown (Supplement FIG. 3). A significant of MLL1 occupancy of the HSP70 and BAG3 gene promoter is also observed at one hour of AUY922 treatment (FIGS. 2C and D). In contrast, the binding of MLL1 to MESI promoter was not detected (FIG. 2E). […]

A375 xenograft = A375 xenograft mouse model, tumor growth; assay type: in vivo
SEM xenograft = SEM xenograft mouse model, tumor growth; assay type: in vivo; details: 10 mg/kg PO, qw
Procedure: (§3) A. Real-time PCR analysis of different human leukemia cell lines under HSP90 inhibitor treatment. Human leukemia cells were cultured and treated or untreated with AUY922 for 48 h. Then, total mRNA was collected and Real-time PCR was performed. B. Cell apoptosis analysis of MLL1 low expression or MLL1 high expression human leukemia cells with AUY922 treatment. Human leukemia cells were treated or untreated with AUY922 100 nM for 48 h. The apoptotic cells represented by 7AAD+AnnexinV+ were determined by FACS. C. The effect of HSP90 inhibitor in SEM and MOLM13 xenograft mouse model. Tumor growth rate of SEM and MOLM13 under HSP990 treatment were compared at different time points. […] SEM and MOLM13 cells were treated or untreated with AUY922 100 nM for 3 h. Total RNA were collected and microarray was performed.
(§4) Mice were maintained and handled in accordance with Novartis Biomedical Research Animal Care and Use Committee protocols and regulations. A375 with Tet-inducible shRNA against MLL1 were cultured in DMEM supplemented with 10% Tet-approved FBS. Mice (6-8 wk old, n=8) were inoculated s.c. with 1×10^6 cells in the right dorsal axillary region. Tumor volume was measured by calipering in two dimensions and calculated as (length×width2)/2. […] Data were expressed as mean±SEM, and differences were considered statistically significant at P<0.05 by Student t test.

MOLM13 xenograft = MOLM13 xenograft mouse model, tumor growth; assay type: in vivo; details: 10 mg/kg PO, qw
Procedure: as §3, §4

A375 cells = assay: Cell colony formation assay with MLL1 knockdown, NVP-LGX818; assay type: cell-based, human; details: shMLL1
Procedure: Supplementary FIG. 5: Cell colony formation assay of HSF1 knockdown or MLL1 knockdown with NVP-LGX818 treatment in A375 cells 5000 shNTC, shHSF1 or shMLL1 A375 cells were seeded in six wells plate and were treated or untreated with Doxycycline for 5 days, then followed by compound treatment for 6 days.

CCNC(=O)c1noc(-c2cc(C(C)C)c(O)cc2O)c1-c1ccc(CN2CCOCC2)cc1 [AUY922, 5-(2,4-Dihydroxy-5-isopropyl-phenyl)-4-(4-morpholin-4-ylmethyl-phenyl)-isoxazole-3-carboxylic acid ethylamide]
IC95 (MOLM13): about 100 nM | IC95 (NOMO): about 100 nM | IC95 (RS(4,11)): about 100 nM | IC95 [1]: about 1000 nM | effect on proliferation / killing of cells (MLL1+/+ MEFs [2]): inhibits the proliferation rate of MEFs, but didn't kill those cells | cells killed (MLL1−/− MEFs [3]): more than 90% | cells induced apoptosis (MLL1+/+ MEFs [4]): 30% | cells induced apoptosis (MLL1−/− MEFs [5]): more than 80% | response to treatment (relative cell growth) (human primary BALL cells; P1 leukemia cells with high MLL1 expression): didn't response | response to treatment (relative cell growth) (human primary BALL cells; P4 leukemia cells with low MLL1 expression): good response | response to treatment (relative cell growth) (human primary BALL cells; other two human leukemia samples): a certain response | sensitivity in colony formation on induction of MLL1 shRNA (A375, A2058 and HCT116): dramatically sensitivity | binding of HSF1 to HSP70 or BAG3 promoter (ChIP) [6]: increased about ten times

COc1cccc(-c2cc(F)ccc2[C@H]2Cc3nc(N)nc(C)c3C(=O)N2)n1 [HSP990, (R)-2-amino-7-[4-fluoro-2-(6-methyoxy-pyridin-2-yl)-phenyl]-4-methyl-7,8-dihydro-6H-pyrido[4,3-d]pyrimidin-5-one]
tumor growth outcome (A375 xenograft; HSF1 knockdown & HSP990 combination): tumor stasis | inhibited tumor growth, T/C (A375 xenograft; HSP990 alone, 10 mg/kg PO, qw): 50 % T/C | inhibited tumor growth, T/C (SEM xenograft): 30 % T/C | inhibited tumor growth, T/C (MOLM13 xenograft): 60 % T/C

COC(=O)N[C@@H](C)CNc1nccc(-c2cn(C(C)C)nc2-c2cc(Cl)cc(NS(C)(=O)=O)c2F)n1 [NVP-LGX818]
combinational effect with MLL1 knockdown, colony formation (A375 cells): does not have a combinational effect
